{
  "source": "patent US6699681B2",
  "about": "“Endothelin converting enzymes and the amyloid β peptide” (Mayo Foundation for Medical Education and Research, priority 2000, dated 2004)",
  "key": {"[1]": {"tested_on": "HUVEC cells", "assay": "Aβ accumulation in HUVEC cells treated with phosphoramidon", "assay_type": "cell-based, human", "details": "high doses of phosphoramidon", "experimental": "(§1) Human and guinea pig Aβ40 or Aβ42 was measured in plasma by sandwich ELISA as previously described (Suzuki et al., 1994, Science, 264:1336-1340) using the BAN-50/BA-27 or BAN-50/BC-05 antibody systems, respectively (Takeda; Japan). Hamster Aβ40- or Aβ42-derived from CHO cells was measured using the BNT-77/BA-27 or BNT-77/BC-05 antibody systems, respectively. Aβ concentration in samples was determined by comparison to synthetic Aβ40 or Aβ42 standards (Bachem, Switzerland). Data was obtained from triplicate wells.\nIn particular, the sandwich ELISA used herein was performed as follows: 96-well microtiter plates were coated overnight at 4° C. with 100 μl of a 5 μg/ml dilution of primary antibody in sodium carbonate coating buffer (SCCB; 0.1 M Na2CO3, pH 9.6). […] Plates were read at 450 nm in a SpectraMax Plus spectrophotometer (Molecular Devices; Sunnyvale, Calif.) and analyzed by SOFTmax® PRO software. Aβ40 or Aβ42 were quantitated by comparison with the values obtained for each synthetic Aβ standard from the same plate.\nCells were passaged into 6-well plates one day prior to treatment and grown to confluence. […] After treatment, the culture medium was harvested, spun at 14,000 xg, and the supernatant analyzed for Aβ40 or Aβ42 using sandwich ELISA and for secreted APP using Western blot. […]"}, "[2]": {"tested_on": "ECE-transfected CHO cells", "assay": "Aβ concentration in conditioned medium of ECE-1a- or ECE-1b-transfected CHO cells", "assay_type": "cell-based, hamster", "experimental": "as §1\nIn particular, the sandwich ELISA used herein was performed as follows: 96-well microtiter plates were coated overnight at 4° C. with 100 μl of a 5 μg/ml dilution of primary antibody in sodium carbonate coating buffer (SCCB; 0.1 M Na2CO3, pH 9.6). Plates were blocked overnight at 4° C. with 300 μl of BLOCKAGE Solution (PBS+1.0% BLOCKAGE (Snow Brand Milk Products, Japan), 0.05% NaN3, pH 7.4). Samples for analysis and synthetic Aβ standards (Bachem, Switzerland) were diluted in buffer EC (0.02 M NaH2PO4, 0.002 M EDTA, 0.4 M NaCl, 0.2% BSA, 0.05% CHAPS, 0.04% BLOCKAGE, 0.05% NaN3, pH 7.0) and allowed to incubate on the plates overnight at 4° C. Plates were washed twice with PBS (8 mM Na2HPO4, 1.5 mM KH2PO4, 139 mM NaCl, 2.7 mM KCl, pH 7.4) and 100 μl of secondary antibody directly coupled to HRP (EZ-LINK™ Plus Activated Peroxidase kit (contents of kit: peroxidase, 5 M sodium cyanoborohydride solution (NaBH3CN), quenching buffer (3 M ethanolamine, pH 9.0), BupH™ phosphate buffered saline, Buph™ carbonate-bicarbonate buffer), according to manufacturers directions; Pierce Chemical Co., Rockford, Ill.) was allowed to bind either 4 hrs at room temperature or overnight at 4° C. Plates were then washed twice with PBS containing 0.05% Tween 20 followed by two additional washes in PBS. […] Plates were read at 450 nm in a SpectraMax Plus spectrophotometer (Molecular Devices; Sunnyvale, Calif.) and analyzed by SOFTmax® PRO software. Aβ40 or Aβ42 were quantitated by comparison with the values obtained for each synthetic Aβ standard from the same plate. […]"}, "[3]": {"tested_on": "neuronal cell lines", "details": "previously shown; cited from earlier work"}, "[4]": {"tested_on": "H4 neuroglioma cells", "details": "reported; cited from earlier work"}},
  "data": [
    {"smiles": "CC(C)C[C@H](NP(=O)(O)O[C@@H]1O[C@@H](C)[C@H](O)[C@@H](O)[C@H]1O)C(=O)N[C@@H](Cc1c[nH]c2ccccc12)C(=O)O", "note": "[phosphoramidon]", "values": [
      {"measurement": "Aβ accumulation", "setting": "[1]", "value": "virtually undetectable levels of Aβ accumulation unless treated with high doses of phosphoramidon"},
      {"measurement": "reversal of the reduction in Aβ concentration in ECE-transfected cells", "setting": "[2]; ECE-transfected CHO cells treated with phosphoramidon", "value": "completely reversed"},
      {"measurement": "phosphoramidon-induced accumulation of endogenous Aβ", "setting": "[2]; parallel cultures of ECE-1a-transfected cells without synthetic Aβ, 24 hr", "value": "greater than 600%"},
      {"measurement": "increase in secretion of endogenous Aβ", "setting": "[2]; phosphoramidon-treated ECE-transfected CHO cells, 6 hr", "value": "1.5- to 2 fold"},
      {"measurement": "increase in the concentration of Aβ40 and Aβ42 in the conditioned medium", "setting": "[3]", "value": "2- to 3 fold"},
      {"measurement": "extracellular Aβ concentration", "setting": "[4]", "value": "significant increase"}
    ]}
  ]
}
